Source: patent publication US20110064773A1, “PHARMACEUTICAL COMPOSITIONS COMPRISING A THYROID HORMON AND THEIR THERAPEUTIC USE” (UNIVERSITE JOSEPH FOURIER, priority 2007, published 2011)
Entries after “also recorded” stand apart in the source; their conditions may differ.

Key:
[1] = system: Wistar rats; experiment: Growth rate (body weight) and food intake of Wistar rats; format: in vivo, rat; conditions: for Body mass: 2.5 μg/100 g continuous
Method: Adult male rat bred in the animal room facilities of Laboratory of Fundamental and Applied Bioenergetics (Wistar strain) or purchased from Charles-River Laboratories, Domaine des oncins, L'ARBRESLE France [(genetically obese normoglycemic (Zucker or Fa/Fa) or diabetic (ZDF)] were caged individually in stainless steel hanging cages and maintained in a 22° C., 50±10% relative humidity and 12 h:12 h light:dark environment. All animals were fed ad libitum with a standard rat chow (Safe A04, Villemoisson, France) and tap water. Body mass and food intake were recorded twice/thrice a week and fresh food was provided at the same time to ensure minimal disturbance to the animals' food behavior.
Eight-week old rats (300 g±10 g) were anesthetized by simultaneous intraperitoneal injection of diazepam 4 mg/kg and ketamine 100 mg/kg. In order to maintain body temperature during the surgery (10 min), animals were placed on a warm blanket. After interscapular shaving, a small incision of 0.5 cm of the skin allows the subcutaneous implantation of a small pellet (containing rT3 or 3′,3-T2) with a 10-gauge precision trochar. The pellets, manufactured by Innovative Research of America (Sarasota, Fla., USA) are constituted of a biodegradable matrix that effectively and continuously release the active product in the animal.
[…] (reverseT3) or 3-3′ diiodothyronine (3-3′ T2) were used at different doses (5, 0.5, or 0.1 mg/pellet) were implanted in order to provide a continuous and constant drug delivery over 60 days (which represents 25 μg, 2.5 μg or 0.5 μg/day/100 g BW).
(§1) Wistar rats were treated with rT3 hormone by a daily intraperitoneal injection (IP) (25 μg/100 g BW), a daily sub-cutaneous injection (SC) (25 μg/100 g BW), or a per os administration included in the rat food (25 μg/100 g BW). The continuous and constant administration was performed by using a pellet (25 μg/100 g BW).
However the role of the administration site was further investigated by comparing continuous administration of rT3 by osmotic pump implanted either subcutaneously or intraperitonally with the reference treatment administered by sub-cutaneous pellets. Wistar rats were treated for 21 days with placebo, sub-cutaneous pellet or sub-cutaneous or intraperitoneal osmotic pumps. rT3 was administered continuously (2.5 μg/100 g).
Wistar rats were treated by a continuous and constant administration of low doses of rT3 by 3 different methods of administration: • a sub-cutaneous pellet, • an osmotic pump placed under the skin, and • an osmotic pump placed in the peritoneal cavity.

[2] = system: nuclear receptors of the thyroid hormones, TRα-1 and TRβ-1; conditions: literature statements; cited from earlier work
[3] = Blood rT3 dosage over 24 hours after administration; format: in vivo, rat; conditions: Wistar rats
Method: Blood rT3 dosage. The rT3 concentration is measured for 24 hours in Wistar rats treated with a high dosage of rT3 by intra-peritoneal injection (IP, square), oral ingestion (per os, triangle) or subcutaneous injection (sc, star). Basal rT3 level is measured in animal treated with placebo (lozenge).
as §1

[4] = system: ZDF rats; experiment: Plasma lipid profiles of ZDF rats; format: in vivo, rat; conditions: 2.5 μg/100 g BW, day of sacrifice
Excerpt: At the end of the experimental period, animals were sacrificed by decapitation, in order to avoid the well-known effects of general anesthetics on mitochondrial metabolism. Blood samples were immediately collected and plasma was frozen for subsequent determination of serum metabolites and hormones. Liver, muscles and fat depots were quickly excised and weighed. Liver median lobe was rapidly freeze-clamped. Muscles (plantaris, soleus and gastrocnemius) were frozen in isopentane precooled in liquid nitrogen. Mesenteric fat consisted of adipose tissue surrounding the gastro-intestinal tract from the gastro-oesophageal sphincter to the end of the rectum with special care taken in distinguishing and removing the pancreas. Retroperitoneal fat pad was taken as the distinct depot behind each kidney along the lumbar muscles. Epididymal fat consisted of adipose tissue on top of the epididymis. For subcutaneous depot measurement, a rectangular piece of skin was taken on the right side of each animal from the median line of the abdomen between the spine and the right hip to the first rib. Interscapular brown adipose tissue was removed and dissected free from adjacent muscles and white adipose tissue. The heart ventricles, the right kidney and the spleen were also excised, weighed and frozen.
Glucose and 3-hydroxybutyrate (3-HB) were measured enzymatically and non esterified fatty acid (NEFA) by colorimetric assay (Wako Chemicals).
Triglycerides and cholesterol were measured by classical routine automate apparatus.
To better understand the lipid metabolism, lipid profiles of free fatty acid (FFA, FIG. 29), triglycerides (FIG. 30), cholesterol (FIG. 31) and high density lipoprotein (HDL, FIG. 32) were analysed.

[5] = system: ZDF rats; experiment: Indirect calorimetry (EE, RQ) of ZDF rats; format: in vivo, rat
Excerpt: Energy expenditure as well as the nature of substrate oxidized (carbohydrates or lipids) were investigated by indirect calorimetry. This principle is based on the determinations of CO2 release (VCO2) and O2 consumption (VO2) by each animal. It assumes that O2 is entirely involved in substrate oxidation in the respiratory chain (leading to water production) while CO2 release is related to substrate decarboxylation (in the Krebs' cycle). These measurements allow assessing energy expenditure (EE) and respiratory quotient ([…], RQ). EE represent the absolute energy dissipation during rest and activity. RQ is a relative measurement indicating the ratio of carbohydrate versus lipid involved in oxidative pathway. A ratio of 1.0 indicates exclusive carbohydrate oxidation while a ratio of 0.7 indicates exclusive lipid oxidation. Each value between these two extreme values indicates the relative proportion of each substrate (of note protein oxidation was not evaluated). As an example, RQ approaches 0.7 during fasting, indicating lipid oxidation, conversely after feeding RQ increases close to 1 indicating carbohydrate oxidation resulting from food intake and blood insulin rise. Likewise, animals fed high-carbohydrate diets have higher RQs than those fed high-fat diets.
The indirect calorimetry system (Panlab, Barcelona, Spain) consists of cages, pumps, flow controllers, valves, and analyzers. It is computer-controlled in order to sequentially measure O2 and CO2 concentrations as well as air flow in four separate cages allowing four simultaneous determinations. Rats are isolated in one of the four metabolic chambers, and room air is used as a reference to monitor ambient O2 and CO2 concentrations periodically.
At predefined intervals, the computer sends a signal to store differential CO2 and O2 concentrations, flow rate, allowing computing VCO2, VO2, RQ, and EE (Weir equation) with data acquisition hardware (Metabolism, Panlab, Barcelona, Spain).

N[C@@H](Cc1ccc(Oc2cc(I)c(O)c(I)c2)c(I)c1)C(=O)O [rT3, 3′,5′,3-triiodothyronine]
Body mass ([1]; osmotic pump in the peritoneal cavity, 21 days): significant reduction
Body mass ([1]; osmotic pump under the skin, 21 days): significant reduction
Food intake immediately after the pellet ([1]; 25 μg/100 g BW pellet, from day 4 until day 7): decrease
Influence on the animal mass (rat body weight) ([1]; 25 μg/100 g BW/day, continuous and constant administration (subcutaneous pellet), 8 days): reduce the rat body weight
Growth rate (body weight) ([1]; high dose 25 μg/100 g BW, subcutaneous pellet, 21 days, vs placebo): did not show any weight gain; also recorded: reduce the body weight
Appetite (food intake) ([1]; low dose 2.5 μg/100 g BW): without modifying their appetite
Body weight (body mass) ([1]; low dose 2.5 μg/100 g BW, sub-cutaneous pellet, 21 days, vs placebo): reduce the body weight; also recorded: significant reduction
Binding to the nuclear (TH) receptors [2]: very little affinity
Circulating rT3 (degradation) ([3]; high dosage, intra-peritoneal injection): rapidly degraded
Circulating rT3 compared to the injected dose ([3]; intra-peritoneal injection, after 5 hours): five fold decreased
Circulating rT3 concentration in blood ([3]; per os administration): never allows to obtain in blood a concentration of rT3 similar with the concentration observed after intra-peritoneal injection
Circulating rT3 concentration in blood ([3]; sub-cutaneous injection): remains substantially the same as the injected concentration
Circulating rT3 (degradation) ([3]; sub-cutaneous injection, after 24 hours): quasi completely degraded
Cholesterol level [4]: not influenced
FFA in blood [4]: significantly enhanced
Triglycerides in blood [4]: significantly reduced
Energy expenditure ([5]; 2.5 μg/100 g BW, vs placebo): enhanced
Respiratory quotient (RQ) ([5]; 2.5 μg/100 g BW, vs placebo): enhanced
Energy expenditure, enhancement ([5]; low dose of rT3): +50%
